Test results as given in patent US20110152267A1, “Compositions and Methods for Treating Hyperproliferative Disorders” (Texas Tech University System, priority 2009, published 2011).

Legend:
Format in all cases: cell-based, human
[1] = system: U-266 Multiple Myeloma cell line; assay: DIMSCAN cytotoxicity, fenretinide + L-threo-sphinganines 3:1 (Example B3); details: 96 h
Experimental: (§1) Cytotoxicity Assay—Once again, cytotoxicity is determined using the DIMSCAN assay system (R. Proffitt et al., Cytometry 24, 204-213 (1996); T. Frgala et al., Mol Cancer Ther. 6:886-97, 2007). The system employs digital imaging microscopy to quantify viable cells, which selectively accumulate fluorescein diacetate to become brightly fluorescent. The system is capable of measuring cytotoxicity over a 4-5 log dynamic range by quenching the residual fluorescence of dead and dying cells with eosin Y and quantifying the total fluorescence of viable cells using digital thresholding. Measured fluorescence is directly proportionate to the number of viable cells. A comparison of the total fluorescence of a drug-treated cell population to the fluorescence of a similar number of untreated cells yields a survival fraction. In brief, 2000 to 10,000 cells/well (depending on size and growth rates) are replicate plated into 60 wells of a 96-well tissue culture plate in 0.1 mL of whole medium and allowed to attach overnight. Drug(s) are then added in 0.05 mL of whole medium to the final concentrations indicated. Drugs (fenretinide, and various chain length L-threo-sphinganines) were tested both as single agents and in a 3:1 ratio of fenretinide:sphinganine. C18-L-threo-sphinganine, or “safingol,” was also tested and results shown for reference. There are 12 wells treated per drug concentration. Twelve wells receive drug vehicle-only to the appropriate final concentration and serve as controls for the plate. Cells are incubated for 96 hours at 37° C. in ambient air with 5% CO2. Fluorescein diacetate is then added to each well in 0.05 mL media to a final concentration of 8 microgram/mL. Cells are incubated for a further 15 minutes at 37° C. and 0.03 mL of 0.5% eosin Y is added to each well. Total fluorescence of viable cells is then measured by digital imaging microscopy. Results were graphed as the ratio of the fluoresecence of drug-treated wells to non-drug treated control wells (i.e., Survival Fraction). All tests were performed at least twice. Representative results are shown.
(§2) The Combination Index (CI) is a term to describe mathematical modeling of the pharmacologic effects on cytotoxicity (cell death) of two drugs in combination based. Cytotoxic “synergy” is defined as a cell death affect which is greater than would be expected from a simple product of the single agent cytotoxicities alone (i.e. an “additive” effect). By Chou-Talalay analysis, a CI<0.9 on a Fraction Affected (“Fa”, i.e. fraction of cells killed) indicates synergy, with smaller numbers indicating greater synergy; a CI of 0.9-1.1 signifies an additive or near-additive effect; and a CI>1.1 means the drug combination is antagonistic.
Fenretinide and L-threo-sphinganines tested in human Multiple Myeloma (a cancer of the blood and bone marrow) cell line, U-266.

[2] = system: A-172 Glioblastoma multiforme cell line; assay: DIMSCAN cytotoxicity, fenretinide + L-threo-sphinganines 3:1 (Example B4); design: key to CI (Combination Index): Chou-Talalay CI: <0.9 synergy, 0.9-1.1 additive, >1.1 antagonism; details: 96 h
Experimental: as §1, §2
Fenretinide and L-threo-sphinganines tested in human Glioblastoma multiforme (brain cancer) cell line, A-172.

[3] = system: SJ-GBM2 Glioblastoma multiforme cell line; assay: DIMSCAN cytotoxicity, fenretinide + L-threo-sphinganines 3:1 (Example B7); design: key to CI (Combination Index): Chou-Talalay CI: <0.9 synergy, 0.9-1.1 additive, >1.1 antagonism; details: 96 h
Experimental: as §1, §2
Fenretinide and L-threo-sphinganines tested in human Glioblastoma multiforme (brain cancer) cell line, SJ-GBM2.

[4] = system: OVCAR-8 ovarian adenocarcinoma cell line; assay: DIMSCAN cytotoxicity, fenretinide + L-threo-sphinganines 3:1 (Example B15); design: key to CI (Combination Index): Chou-Talalay CI: <0.9 synergy, 0.9-1.1 additive, >1.1 antagonism; details: 96 h
Experimental: as §1, §2
Fenretinide and L-threo-sphinganines tested in human ovarian adenocarcinoma (ovarian cancer) cell line, OVCAR-8.

[5] = system: PANC-1 pancreatic adenocarcinoma cell line; assay: DIMSCAN cytotoxicity, fenretinide + L-threo-sphinganines 3:1 (Example B18)
Experimental: as §1, §2
Fenretinide and L-threo-sphinganines tested in human pancreatic adenocarcinoma (pancreas cancer) cell line, PANC-1.

[6] = system: OE-19 esophageal adenocarcinoma cell line; assay: DIMSCAN cytotoxicity, fenretinide + L-threo-sphinganines 3:1 (Example B19)
Experimental: as §1, §2
(§3) Fenretinide and L-threo-sphinganines tested in human esophageal adenocarcinoma (esophagus cancer) cell lines, OE-19 and OE-33.

[7] = system: OE-33 esophageal adenocarcinoma cell line; assay: as above
Experimental: as §1, §2, §3

[8] = system: CHLA-90 pediatric neuroblastoma cell line; assay: DIMSCAN cytotoxicity, fenretinide + L-threo-sphinganines 3:1 (Example B21)
Experimental: as §1, §2
Fenretinide and L-threo-sphinganines tested in human pediatric neuroblastoma (a nerve-related, solid tumor cancer) cell line, CHLA-90.

[9] = 4-HPR 1.5 μM + L-threo-sphinganine 0.5 μM
[10] = 4-HPR 3 μM + L-threo-sphinganine 1 μM
[11] = 4-HPR 6 μM + L-threo-sphinganine 2 μM
[12] = 4-HPR 9 μM + L-threo-sphinganine 3 μM
[13] = 4-HPR 12 μM + L-threo-sphinganine 4 μM

## CCCCCCCCCCCCCC[C@H](O)[C@@H](N)CO [C17, (2S,3S)-2-amino-1,3-heptadecanediol]
[1]; [9]
  CI (Combination Index): 1.3
  Fa (fraction affected): 0.134
[1]; [10]
  CI (Combination Index): 1.5
  Fa (fraction affected): 0.35
[1]; [11]
  CI (Combination Index): 0.9
  Fa (fraction affected): 0.901
[1]; [12]
  CI (Combination Index): 0.4
  Fa (fraction affected): 0.991
[2]; [9]
  CI (Combination Index): 1.4
  Fa (fraction affected): 0.232
[2]; [10]
  CI (Combination Index): 1.4
  Fa (fraction affected): 0.529
[2]; [11]
  CI (Combination Index): 0.2
  Fa (fraction affected): 0.996
[2]; [12]
  CI (Combination Index): >0.1
  Fa (fraction affected): 1.000
[3]; [9]
  CI (Combination Index): 0.5
  Fa (fraction affected): 0.188
[3]; [10]
  CI (Combination Index): 0.5
  Fa (fraction affected): 0.796
[3]; [11]
  CI (Combination Index): 0.7
  Fa (fraction affected): 0.962
[3]; [12]
  CI (Combination Index): 0.7
  Fa (fraction affected): 0.998
[4]; [9]
  CI (Combination Index): 0.2
  Fa (fraction affected): 0.467
[4]; [10]
  CI (Combination Index): 0.4
  Fa (fraction affected): 0.519
[4]; [11]
  CI (Combination Index): 0.5
  Fa (fraction affected): 0.676
[4]; [12]
  CI (Combination Index): 0.4
  Fa (fraction affected): 0.903
[5]; [9]
  CI: 1.5
  Fa: 0.171
[5]; [10]
  CI: 1.7
  Fa: 0.311
[5]; [11]
  CI: 0.9
  Fa: 0.714
[5]; [12]
  CI: 0.1
  Fa: 0.990
[6]; [9]
  CI: 0.3
  Fa: 0.314
[6]; [10]
  CI: 0.3
  Fa: 0.462
[6]; [11]
  CI: 0.2
  Fa: 0.689
[6]; [12]
  CI: 0.2
  Fa: 0.743
[7]; [9]
  CI: 1.5
  Fa: 0.376
[7]; [10]
  CI: 1.1
  Fa: 0.767
[7]; [11]
  CI: 0.8
  Fa: 0.945
[7]; [12]
  CI: 0.4
  Fa: 0.991
[8]; [10]
  CI: 0.4
  Fa: 0.994
[8]; [11]
  CI: 0.4
  Fa: 0.999
[8]; [12]
  CI: 0.6
  Fa: 0.9997
[8]; [13]
  CI: 0.3
  Fa: 1

## CCCCCCCCCCCCCCCCC[C@H](O)[C@@H](N)CO [C20, (2S,3S)-2-amino-1,3-icosanediol]
[1]; [9]
  CI (Combination Index): 1.2
  Fa (fraction affected): 0.259
[1]; [10]
  CI (Combination Index): 1.3
  Fa (fraction affected): 0.688
[1]; [11]
  CI (Combination Index): 0.4
  Fa (fraction affected): 0.999
[1]; [12]
  CI (Combination Index): >0.1
  Fa (fraction affected): 1.000
[2]; [9]
  CI (Combination Index): 2.8
  Fa (fraction affected): 0.039
[2]; [10]
  CI (Combination Index): 1.0
  Fa (fraction affected): 0.594
[2]; [11]
  CI (Combination Index): 0.6
  Fa (fraction affected): 0.983
[2]; [12]
  CI (Combination Index): >0.1
  Fa (fraction affected): 1.000
[3]; [9]
  CI (Combination Index): 0.5
  Fa (fraction affected): 0.055
[3]; [10]
  CI (Combination Index): 0.6
  Fa (fraction affected): 0.737
[3]; [11]
  CI (Combination Index): 0.7
  Fa (fraction affected): 0.998
[3]; [12]
  CI (Combination Index): 0.3
  Fa (fraction affected): 1.000
[4]; [9]
  CI (Combination Index): 0.5
  Fa (fraction affected): 0.259
[4]; [10]
  CI (Combination Index): 0.6
  Fa (fraction affected): 0.366
[4]; [11]
  CI (Combination Index): 0.8
  Fa (fraction affected): 0.453
[4]; [12]
  CI (Combination Index): 0.2
  Fa (fraction affected): 0.956
[5]; [9]
  CI: 1.9
  Fa: 0.136
[5]; [10]
  CI: 1.9
  Fa: 0.291
[5]; [11]
  CI: 1.2
  Fa: 0.653
[5]; [12]
  CI: 0.1
  Fa: 0.990
[6]; [9]
  CI: 3.2
  Fa: 0.352
[6]; [10]
  CI: 6.6
  Fa: 0.438
[6]; [11]
  CI: >>1
  Fa: 0.708
[6]; [12]
  CI: >>1
  Fa: 0.771
[7]; [9]
  CI: 1.9
  Fa: 0.255
[7]; [10]
  CI: 1.9
  Fa: 0.445
[7]; [11]
  CI: 0.8
  Fa: 0.883
[7]; [12]
  CI: 0.2
  Fa: 0.993
[8]; [10]
  CI: 0.5
  Fa: 0.996
[8]; [11]
  CI: 0.7
  Fa: 0.999
[8]; [12]
  CI: 1.1
  Fa: 0.999
[8]; [13]
  CI: 1.5
  Fa: 0.9999
